The values below come from the NIST ThermoML archive (doi:10.1016/j.jct.2015.07.042).

The data set in a line: activity coefficient (dimensionless); of the first substance listed, at infinite dilution; xn = mol fraction of the nth substance listed. The following applies: 101 kPa, Liquid, Chromatography, x1 = 0.

Numbers after ± are expanded uncertainties.

As for `C1CCCCCC1` [cycloheptane] + CCCCn1cc[n+](C)c1.CS(=O)(=O)[O-], the activity coefficient came to 44.2 ± 3 (358.15 K), 43.3 ± 3 (368.15 K), 42.6 ± 2.9 (378.15 K) and 42.2 ± 2.9 (388.15 K).

For `C1CCCCCC1` [cycloheptane] + CCCCn1cc[n+](C)c1.[Cl-], the activity coefficient by setting is: (358.15 K) 62.7 ± 4.3; (368.15 K) 58.8 ± 4; (378.15 K) 55.4 ± 3.8; (388.15 K) 53.6 ± 3.7.

Turning to `C1CCCCC1` [cyclohexane] + CCCCn1cc[n+](C)c1.COP(=O)([O-])OC, the activity coefficient by setting is: (358.15 K) 12.3 ± 0.84; (368.15 K) 11.9 ± 0.81; (378.15 K) 11.6 ± 0.79; (388.15 K) 11.4 ± 0.78.

Regarding `C1CCCCC1` [cyclohexane] + CCCCn1cc[n+](C)c1.CS(=O)(=O)[O-], the activity coefficient by setting is: (358.15 K) 35.2 ± 2.4; (368.15 K) 34.5 ± 2.4; (378.15 K) 33.9 ± 2.3; (388.15 K) 33.8 ± 2.3.

Take `C1CCCCC1` [cyclohexane] + CCCCn1cc[n+](C)c1.[Cl-]: the activity coefficient worked out at 84.2 ± 5.8 (358.15 K), 79 ± 5.4 (368.15 K), 73 ± 5 (378.15 K) and 69.8 ± 4.8 (388.15 K).

With `C1=CCCCC1` [cyclohexene] + CCCCn1cc[n+](C)c1.COP(=O)([O-])OC, the activity coefficient (358.15 K) is 7.15 ± 0.49, the activity coefficient (368.15 K) came to 7.13 ± 0.49, the activity coefficient (378.15 K) amounted to 7.11 ± 0.48 and the activity coefficient (388.15 K) came to 7.11 ± 0.48.

Turning to `C1=CCCCC1` [cyclohexene] + CCCCn1cc[n+](C)c1.CS(=O)(=O)[O-], the activity coefficient is, setting by setting: (358.15 K) 18.4 ± 1.3; (368.15 K) 18.6 ± 1.3; (378.15 K) 18.7 ± 1.3; (388.15 K) 19 ± 1.3.

With `C1=CCCCC1` [cyclohexene] + CCCCn1cc[n+](C)c1.[Cl-], the activity coefficient reads like this: (358.15 K) 22.8 ± 1.6; (368.15 K) 22.3 ± 1.5; (378.15 K) 21.5 ± 1.5; (388.15 K) 21.3 ± 1.5.

Turning to `C1CCCCCCC1` [cyclooctane] + CCCCn1cc[n+](C)c1.COP(=O)([O-])OC, the activity coefficient by setting is: (358.15 K) 18.8 ± 1.3; (368.15 K) 18.2 ± 1.2; (378.15 K) 17.7 ± 1.2; (388.15 K) 17.3 ± 1.2.

Take `C1CCCCCCC1` [cyclooctane] + CCCCn1cc[n+](C)c1.CS(=O)(=O)[O-]: the activity coefficient amounted to 57.1 ± 3.9 (358.15 K), 55.7 ± 3.8 (368.15 K), 54.4 ± 3.7 (378.15 K) and 53.6 ± 3.7 (388.15 K).

`C1CCCCCCC1` [cyclooctane] + CCCCn1cc[n+](C)c1.[Cl-]: the activity coefficient is 79.5 ± 5.5 (358.15 K), 75.4 ± 5.2 (368.15 K), 71.1 ± 4.9 (378.15 K) and 68.6 ± 4.7 (388.15 K).

`C1CCCC1` [cyclopentane] + CCCCn1cc[n+](C)c1.COP(=O)([O-])OC: the activity coefficient runs as follows: (358.15 K) 8.76 ± 0.6; (368.15 K) 8.59 ± 0.59; (378.15 K) 8.41 ± 0.57; (388.15 K) 8.33 ± 0.57.

As for `C1CCCC1` [cyclopentane] + CCCCn1cc[n+](C)c1.CS(=O)(=O)[O-], the activity coefficient amounted to 23.9 ± 1.6 (358.15 K), 23.7 ± 1.6 (368.15 K), 23.5 ± 1.6 (378.15 K) and 23.3 ± 1.6 (388.15 K).

Take `C1CCCC1` [cyclopentane] + CCCCn1cc[n+](C)c1.[Cl-]: the activity coefficient came out at 38.7 ± 2.6 (358.15 K), 36.2 ± 2.5 (368.15 K), 33.5 ± 2.3 (378.15 K) and 31.8 ± 2.2 (388.15 K).

In the case of `CCCCCCCCCC` [decane] + CCCCn1cc[n+](C)c1.COP(=O)([O-])OC, the activity coefficient by setting is: (358.15 K) 93.4 ± 6.4; (368.15 K) 88.5 ± 6.1; (378.15 K) 84.7 ± 5.8; (388.15 K) 81.6 ± 5.6.

Take `CCCCCCCCCC` [decane] + CCCCn1cc[n+](C)c1.CS(=O)(=O)[O-]: the activity coefficient reads like this: (358.15 K) 371 ± 26; (368.15 K) 352 ± 24; (378.15 K) 340 ± 23; (388.15 K) 324 ± 22.

Turning to `CCCCCCCCCC` [decane] + CCCCn1cc[n+](C)c1.[Cl-], the activity coefficient was 704 ± 48 (358.15 K), 638 ± 44 (368.15 K), 580 ± 40 (378.15 K) and 560 ± 39 (388.15 K).

As to `CCOCC` [diethyl ether] + CCCCn1cc[n+](C)c1.COP(=O)([O-])OC, the activity coefficient is, setting by setting: (358.15 K) 6.21 ± 0.42; (368.15 K) 6.3 ± 0.43; (378.15 K) 6.39 ± 0.44; (388.15 K) 6.48 ± 0.44.

`CCOCC` [diethyl ether] + CCCCn1cc[n+](C)c1.CS(=O)(=O)[O-]: the activity coefficient by setting is: (358.15 K) 14.7 ± 1; (368.15 K) 14.9 ± 1; (378.15 K) 15 ± 1; (388.15 K) 15.3 ± 1.1.

As for `CCOCC` [diethyl ether] + CCCCn1cc[n+](C)c1.[Cl-], the activity coefficient runs as follows: (358.15 K) 19.3 ± 1.3; (368.15 K) 18.9 ± 1.3; (378.15 K) 18.4 ± 1.3; (388.15 K) 18.4 ± 1.3.

On to `CC(C)OC(C)C` [diisopropyl ether] + CCCCn1cc[n+](C)c1.COP(=O)([O-])OC, for which the activity coefficient is, setting by setting: (358.15 K) 14.4 ± 0.98; (368.15 K) 14.3 ± 0.97; (378.15 K) 14.2 ± 0.97; (388.15 K) 14.1 ± 0.96.

In the case of `CC(C)OC(C)C` [diisopropyl ether] + CCCCn1cc[n+](C)c1.CS(=O)(=O)[O-], the activity coefficient reads like this: (358.15 K) 40.6 ± 2.8; (378.15 K) 40.8 ± 2.8; (388.15 K) 41.2 ± 2.8.

Regarding `CC(C)OC(C)C` [diisopropyl ether] + CCCCn1cc[n+](C)c1.[Cl-], the activity coefficient is 78.5 ± 5.4 (358.15 K), 71.7 ± 4.9 (368.15 K), 64 ± 4.4 (378.15 K) and 59.1 ± 4 (388.15 K).

`CCCOCCC` [dipropyl ether] + CCCCn1cc[n+](C)c1.COP(=O)([O-])OC: the activity coefficient came to 13.9 ± 0.95 (358.15 K), 13.7 ± 0.94 (368.15 K), 13.6 ± 0.93 (378.15 K) and 13.4 ± 0.92 (388.15 K).

For `CCCOCCC` [dipropyl ether] + CCCCn1cc[n+](C)c1.CS(=O)(=O)[O-], the activity coefficient was 38.1 ± 2.6 (358.15 K), 38.7 ± 2.6 (368.15 K), 38.9 ± 2.7 (378.15 K) and 39.4 ± 2.7 (388.15 K).

As for `CCCOCCC` [dipropyl ether] + CCCCn1cc[n+](C)c1.[Cl-], the activity coefficient is, setting by setting: (358.15 K) 57.4 ± 3.9; (368.15 K) 55.3 ± 3.8; (378.15 K) 52.8 ± 3.6; (388.15 K) 51.9 ± 3.6.

For `CCO` [ethanol] + CCCCn1cc[n+](C)c1.COP(=O)([O-])OC, the activity coefficient is, setting by setting: (398.15 K) 0.16 ± 0.029; (408.15 K) 0.173 ± 0.029; (418.15 K) 0.189 ± 0.029; (428.15 K) 0.205 ± 0.029.

With `CCO` [ethanol] + CCCCn1cc[n+](C)c1.CS(=O)(=O)[O-], the activity coefficient by setting is: (398.15 K) 0.533 ± 0.039; (408.15 K) 0.553 ± 0.04; (418.15 K) 0.576 ± 0.041; (428.15 K) 0.599 ± 0.042.

Regarding `CCO` [ethanol] + CCCCn1cc[n+](C)c1.[Cl-], the activity coefficient amounted to 0.297 ± 0.031 (398.15 K), 0.313 ± 0.031 (408.15 K), 0.332 ± 0.032 (418.15 K) and 0.353 ± 0.032 (428.15 K).

Consider `CCOC(C)=O` [ethyl acetate] + CCCCn1cc[n+](C)c1.COP(=O)([O-])OC, for which the activity coefficient was determined as 3.81 ± 0.26 (358.15 K), 3.91 ± 0.27 (368.15 K), 4.01 ± 0.27 (378.15 K) and 4.18 ± 0.28 (388.15 K).

In the case of `CCOC(C)=O` [ethyl acetate] + CCCCn1cc[n+](C)c1.CS(=O)(=O)[O-], the activity coefficient by setting is: (358.15 K) 4.76 ± 0.32; (368.15 K) 4.88 ± 0.33; (378.15 K) 5 ± 0.34; (388.15 K) 5.28 ± 0.36.

For `CCOC(C)=O` [ethyl acetate] + CCCCn1cc[n+](C)c1.[Cl-], the activity coefficient reads like this: (358.15 K) 9.02 ± 0.62; (368.15 K) 9.06 ± 0.62; (378.15 K) 9.1 ± 0.62; (388.15 K) 9.16 ± 0.62.

With `CCc1ccccc1` [ethylbenzene] + CCCCn1cc[n+](C)c1.COP(=O)([O-])OC, the activity coefficient (358.15 K) came to 5.73 ± 0.39, the activity coefficient (368.15 K) is 5.87 ± 0.4, the activity coefficient (378.15 K) turned out to be 5.97 ± 0.41 and the activity coefficient (388.15 K) worked out at 6.26 ± 0.43.

Take `CCc1ccccc1` [ethylbenzene] + CCCCn1cc[n+](C)c1.CS(=O)(=O)[O-]: the activity coefficient was found to be 8.45 ± 0.58 (358.15 K), 8.61 ± 0.59 (368.15 K), 8.76 ± 0.6 (378.15 K) and 9.05 ± 0.62 (388.15 K).

Consider `CCc1ccccc1` [ethylbenzene] + CCCCn1cc[n+](C)c1.[Cl-], for which the activity coefficient (358.15 K) is 13.2 ± 0.9, the activity coefficient (368.15 K) is 13.2 ± 0.9, the activity coefficient (378.15 K) amounted to 13.5 ± 0.92 and the activity coefficient (388.15 K) came out at 13.7 ± 0.94.

Take `C=CCCCC` [hex-1-ene] + CCCCn1cc[n+](C)c1.COP(=O)([O-])OC: the activity coefficient reads like this: (358.15 K) 13.9 ± 0.95; (368.15 K) 13.7 ± 0.94; (378.15 K) 13.4 ± 0.91; (388.15 K) 13.2 ± 0.9.

Consider `C=CCCCC` [hex-1-ene] + CCCCn1cc[n+](C)c1.CS(=O)(=O)[O-], for which the activity coefficient amounted to 39.7 ± 2.7 (358.15 K), 40 ± 2.7 (368.15 K), 40 ± 2.7 (378.15 K) and 40.3 ± 2.8 (388.15 K).

Consider `C=CCCCC` [hex-1-ene] + CCCCn1cc[n+](C)c1.[Cl-], for which the activity coefficient (358.15 K) was determined as 61.7 ± 4.2, the activity coefficient (368.15 K) amounted to 57.9 ± 4, the activity coefficient (378.15 K) stood at 53.9 ± 3.7 and the activity coefficient (388.15 K) is 52 ± 3.6.
